In data set [1] the test system is Staphylococcus aureus. The data set is described as follows: Antibacterial activity against methicillin-resistant Staphylococcus aureus USA300 assessed as bacterial growth inhibition in CAMH medium measured by two-fold serial microdilution method. It counts as functional.
For data set [2], the target named is T1, 1,4-dihydroxy-2-naphthoate octaprenyltransferase (Mycobacterium tuberculosis, UniProt P9WIP3).
T1 sequence (P9WIP3 whole entry): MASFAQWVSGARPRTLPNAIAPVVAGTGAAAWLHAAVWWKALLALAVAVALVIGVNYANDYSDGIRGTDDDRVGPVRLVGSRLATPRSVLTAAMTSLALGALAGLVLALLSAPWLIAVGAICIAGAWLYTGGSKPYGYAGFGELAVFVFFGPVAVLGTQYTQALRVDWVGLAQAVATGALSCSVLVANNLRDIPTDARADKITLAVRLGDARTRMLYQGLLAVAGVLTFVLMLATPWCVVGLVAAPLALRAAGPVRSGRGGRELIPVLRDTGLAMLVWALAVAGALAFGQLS
The data set is described as follows: Inhibition of Mycobacterium tuberculosis MenA.

Data set [3] deals with Staphylococcus aureus. Kind of data set: Antibacterial activity against methicillin-resistant Staphylococcus aureus USA300 assessed as bacterial growth inhibition measured by two-fold serial microdilution method. It counts as functional.
Data set [4] deals with Mycobacterium tuberculosis. The data set is described as follows: Antitubercular activity against Mycobacterium tuberculosis H37Ra assessed as bacterial growth inhibition in the presence of 7H10/OADC medium. It is filed as functional.
For data set [5], the system named is Mycobacterium tuberculosis. The data set is described as follows: Antitubercular activity against Mycobacterium tuberculosis H37Rv. It counts as functional.
Data set [6] deals with T1, 1,4-dihydroxy-2-naphthoate octaprenyltransferase. Kind of data set: Competitive inhibition of Mycobacterium tuberculosis H37Rv membrane MenA using DHNA as a substrate in presence of [1-3H]FPP or [1-3H]GGPP. It counts as cell membranes.
For data set [7], the system named is Staphylococcus aureus. The data set is described as follows: Bactericidal activity against methicillin-resistant Staphylococcus aureus USA300 assessed as eradication in population size at 8 to 16 ug/ml measured after 2 hrs by time kill assay curve based analysis. It counts as functional, organism-based. To be noted: dose 8-16 µg/ml.
In data set [8] the test system is Staphylococcus aureus. The data set is described as follows: Bactericidal activity against methicillin-resistant Staphylococcus aureus USA300 assessed as log10 reduction in microbial growth at 8 ug/ml in presence of menaquinone, MK4 measured after 8 hrs by time kill assay curve based analysis. It is filed as functional. To be noted: dose 8 µg/ml.
Data set [9] has as its system Staphylococcus aureus. The data set is described as follows: Bactericidal activity against methicillin-resistant Staphylococcus aureus USA300 at 16 ug/ml measured for 48 hrs in presence of menaquinone, MK4 by time kill assay curve based analysis. It is filed as functional. The following applies: dose 16 µg/ml.
Data set [10] relates to Staphylococcus aureus. The data set is described as follows: Antibacterial activity against methicillin-resistant Staphylococcus aureus USA300 infected in Caenorhabditis elegans N2 worms assessed as worms killing at 5 ug/ml measured after 4 days. It counts as functional. To be noted: dose 5 µg/ml; time 4 day.
Data set [11] deals with Staphylococcus aureus. Kind of data set: Antibacterial activity against methicillin-resistant Staphylococcus aureus USA300 infected in Caenorhabditis elegans N2 worms assessed as worms killing at 25 ug/ml measured after 4 days. It is filed as functional. To be noted: dose 25 µg/ml; time 4 day.
Data set [12] deals with Staphylococcus aureus. The data set is described as follows: Antibacterial activity against methicillin-resistant Staphylococcus aureus USA300 assessed as bacterial growth inhibition at 8 ug/ml measured by two-fold serial microdilution method. It counts as functional, organism-based. The following applies: dose 8.0 µg/ml.
The test system of data set [13] is Staphylococcus aureus. Kind of data set: Antibacterial activity against methicillin-resistant Staphylococcus aureus USA300 assessed as bacterial growth inhibition at 8 ug/ml incubated for 24 hrs in presence 100 ug/ml of menaquinone, MK4 measured by two-fold serial microdilution method. It counts as functional, organism-based. To be noted: dose 8.0 µg/ml.
Data set [14] can be described thus: Toxicity in Balb/cJ mouse assessed as body weight loss at 200 ug INH administered for 4 days and observed on day 5. To be noted: in vivo, inhaled_or_intranasal, 120 h, dose 200 µg, time 5 day.
Data set [15] can be described thus: Drug uptake in Balb/cJ mouse lungs at 200 ug INH administered for 4 days and measured on day 5 by reverse-phase HPLC analysis. To be noted: in vivo, 120 h, at 200 µg, time 5 day. It counts as ADME, tissue-based, Lung.
Data set [16] can be described thus: Toxicity in Balb/cJ mouse assessed as effect on lung damage at 10 mg/kg, INH administered for 4 days and measured on day 5 by H and E staining microscopic analysis. It is filed as organism-based. The following applies: in vivo, inhaled_or_intranasal, 120 h, time 5 day.
A short description of data set [17]: Toxicity in Balb/cJ mouse assessed as effect on lung inflammation at 10 mg/kg, INH administered for 4 days and measured on day 5 by H and E staining microscopic analysis. It counts as organism-based. To be noted: in vivo, inhaled_or_intranasal, 120 h, time 5 day.
Data set [18] can be described thus: Toxicity in Balb/cJ mouse assessed as drug tolerability at 200 ug INH administered for 4 days. To be noted: in vivo, inhaled_or_intranasal, 96 h, at 200 µg, time 4 day.
For data set [19], the system named is Staphylococcus aureus. Kind of data set: Antibacterial activity against methicillin-resistant Staphylococcus aureus USA300 infected in Caenorhabditis elegans N2 worms assessed as worms survival at 5 ug/ml measured after 4 days. The following applies: dose 5 µg/ml; time 4 day. It is filed as functional.
Data set [20] has as its system Staphylococcus aureus. Kind of data set: Antibacterial activity against methicillin-resistant Staphylococcus aureus USA300 infected in Caenorhabditis elegans N2 worms assessed as worms survival at 25 ug/ml measured after 4 days. The following applies: dose 25 µg/ml; time 4 day. It is filed as functional.

≈ marks a conversion by molar mass, not a printed value. Calls of active or inactive are those of the source. The rule behind the calls is not given here.

Take `COc1ccc2ccc(OCCCCCCCCN3CCCCC3)cc2c1`: in data set [1], the Activity is 16 µg/mL. Besides, the half-inhibitory concentration (IC50) in data set [2] is 13.5 µM.

Regarding `CC(C)=CCC/C(C)=C/CNC1CC1`, the MIC in data set [3] and in [4] was more than 128 µg/mL in each case.

Consider `C=CCN(C)C/C=C(\C)CC/C=C(\C)CCC=C(C)C`, for which, in data set [5], 6.1 µg/mL (≈ 22.1 µM) was the least that counted as inhibitory (MIC). Moreover, the IC50 in data set [6] is 20 µM.

On to `CC(C)=CCC/C(C)=C/CN1CCCCC1`, for which the MIC in data set [3] turned out to be 64 µg/mL (≈ 289 µM).

On to `CC(C)=CCC/C(C)=C/CC/C(C)=C/CNCCc1ccc(F)cc1`, for which the outcome in data set [7] and in data set [12] was Active. Also, the figures for the MIC in data set [3] and in [4] were 8 µg/mL (≈ 23.3 µM) and 4 µg/mL, respectively. In addition, the Activity in data set [8] came to 3.5 log10CFU/ml; in data set [9], 100%; in data set [10], 83%; in data set [11], 100%. Further, in [13], the outcome was inactive.

For `CC(C)=CCC/C(C)=C/CC/C(C)=C/CN1CCCCC1`, the results for the MIC in [3] and in data set [4] were 32 µg/mL (≈ 111 µM) and 8 µg/mL, respectively.

For `CC(C)=CCC/C(C)=C/CNCCc1ccc(F)cc1`, the MIC in data set [3] came out at 32 µg/mL (≈ 116 µM).

In the case of `O=[N+]([O-])c1ccc(OCCCCCCCCNCCc2ccc(F)cc2)cc1`, the MIC was determined as 8 µg/mL (≈ 20.6 µM) in data set [3] and 16 µg/mL in data set [4].

Consider `O=[N+]([O-])c1ccc(OCCCCCCCCOc2ccc([N+](=O)[O-])cc2)cc1`, for which the MIC in [3] stood at 64 µg/mL (≈ 165 µM).

For the compound `CC(C)=CCC/C(C)=C/CNC1CCCC1`, the MIC in [3] worked out at 128 µg/mL (≈ 578 µM); in data set [4] it was 64 µg/mL.

For `Fc1ccc(CCNCCCCCCCCNCCc2ccc(F)cc2)cc1`, the MIC in data set [3] worked out at 16 µg/mL (≈ 41.2 µM); in [4], 32 µg/mL.

As to `C=CCN(C)CCCCCCCCOc1ccc2ccc(OC)cc2c1`, in data set [3], the outcome was Active. Moreover, the Activity entry in data set [14] is “Non-Toxic”; in data set [16], “Non-Toxic”; in data set [17], “Non-Toxic”; in [1] it was 16 µg/mL; in data set [18], 100%. Further, in data set [15], the Drug uptake was 32.4%. In data set [2], this compound had an IC50 of 16.9 µM.

For `Fc1ccc(CCNCCCOc2ccc3ccc(OCCCNCCc4ccc(F)cc4)cc3c2)cc1`, the Activity in data set [19] came to 71%; in data set [20] it was 78%; in [1], 3 µg/mL.

On to `CC(C)=CCC/C(C)=C/CC/C(C)=C/CNC1CC1`, for which the MIC in data set [3] came to 16 µg/mL (≈ 61.2 µM).

With `CC(=O)NC[C@H]1CN(c2ccc(N3CCOCC3)c(F)c2)C(=O)O1` [LINEZOLID], the MIC in data set [3] amounted to 1 µg/mL (≈ 2.96 µM).

With `COc1ccc2ccc(OCCCOCC=C(C)C)cc2c1`, the MIC in [3] was more than 256 µg/mL.

Take `Fc1ccc(CNCCCCCCCCNCc2ccc(F)cc2)cc1`: the MIC in [3] stood at 64 µg/mL (≈ 178 µM).

With `CC(C)=CCC/C(C)=C/CC/C(C)=C/COC(=O)C(N)CC(=O)O` (stereo not given), in data set [5], inhibition of growth (MIC) required 12.5 µg/mL (≈ 37 µM). In addition, the half-maximal inhibitory concentration (IC50) in [6] is 5.33 µM.

Consider `COc1ccc2ccc(OCCCCCCCCOCC=C(C)C)cc2c1`, for which, in [3], the minimum inhibitory concentration (MIC) is more than 256 µg/mL.

As for `CC(C)=CCC/C(C)=C/CC/C(C)=C/CNC1CCCC1`, the MIC in data set [3] is 16 µg/mL (≈ 55.3 µM).
